Assay results reported in patent publication US8268813B2, “Zilpaterol enantiomer compositions and methods of making and using such compositions” (Intervet International B.V., priority 2006, dated 2012).
Several values for one entry are separate records, joined by “and”; a condition that tells them apart may be missing. Identical values can stand only once. Like-named read-outs stand apart in the source and are kept apart here.

Columns and labels:
human μ-opioid receptor = target: T1, human μ-opioid receptor (Homo sapiens, UniProt P35372); assay: Radioligand binding assay, [3H]DAMGO, transfected HEK-293 cell membranes
T1 construct: expressed in transfected cells; host or cells: HEK-293 cells; membrane homogenates
T1 sequence (P35372 whole entry): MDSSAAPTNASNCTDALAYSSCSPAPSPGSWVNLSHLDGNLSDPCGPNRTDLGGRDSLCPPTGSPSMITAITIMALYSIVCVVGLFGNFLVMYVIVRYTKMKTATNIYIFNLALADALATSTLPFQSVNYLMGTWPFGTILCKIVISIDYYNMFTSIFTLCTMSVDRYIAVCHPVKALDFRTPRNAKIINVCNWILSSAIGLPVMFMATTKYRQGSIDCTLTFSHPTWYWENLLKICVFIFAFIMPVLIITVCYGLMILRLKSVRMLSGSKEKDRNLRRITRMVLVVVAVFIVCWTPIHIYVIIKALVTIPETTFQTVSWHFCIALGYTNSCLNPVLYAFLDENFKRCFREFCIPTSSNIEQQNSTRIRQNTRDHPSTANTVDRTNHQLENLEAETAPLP
Experimental: This investigation was conducted using a radioligand binding assay.
Non-specific binding was determined in the presence of 10 μM naloxone. Assay volume and format was 250 μl in 96-well plate. The test compound was added as a 10-fold concentrated solution, and the maximum tolerable DMSO concentration was 1%. Following incubation, the samples were filtered rapidly under vacuum through glass fiber filters (GF/B, Packard), pre-soaked with 0.3% PEI, and rinsed several times with ice-cold 50 mM Tris-HCl using a 96-sample cell harvester (Unifilter, Packard). The filters were dried, and counted for radioactivity in a scintillation counter (Topcount, Packard) using a scintillation cocktail (Microscint 0, Packard). The results were expressed as percent inhibition of the control radioligand specific binding.
Specific ligand binding to the receptors is the difference between the total binding and the non-specific binding determined in the presence of an excess of unlabelled ligand. The results are expressed as a percent of control specific binding and as a percent inhibition of control specific binding obtained in the presence of the test compounds.
The IC50 values (concentration causing a half-maximal inhibition of control specific binding) and Hill coefficients (nH) were determined by non-linear regression analysis of the competition curves using Hill equation curve fitting. […] Here, L is the concentration of radioligand in the assay, and KD is the affinity of the radioligand for the receptor.

μ-opioid receptor = assay: Functional ex-vivo isolated organ bioassay (Guinea pig ileum), μ-opioid agonist response; details: Applicants believe results may be faulty
[1] = target: β2 adrenergic receptors in guinea pig trachea (Cavia porcellus, UniProt Q8K4Z4)
Sequence of β2 adrenergic receptors in guinea pig trachea (Q8K4Z4 whole entry): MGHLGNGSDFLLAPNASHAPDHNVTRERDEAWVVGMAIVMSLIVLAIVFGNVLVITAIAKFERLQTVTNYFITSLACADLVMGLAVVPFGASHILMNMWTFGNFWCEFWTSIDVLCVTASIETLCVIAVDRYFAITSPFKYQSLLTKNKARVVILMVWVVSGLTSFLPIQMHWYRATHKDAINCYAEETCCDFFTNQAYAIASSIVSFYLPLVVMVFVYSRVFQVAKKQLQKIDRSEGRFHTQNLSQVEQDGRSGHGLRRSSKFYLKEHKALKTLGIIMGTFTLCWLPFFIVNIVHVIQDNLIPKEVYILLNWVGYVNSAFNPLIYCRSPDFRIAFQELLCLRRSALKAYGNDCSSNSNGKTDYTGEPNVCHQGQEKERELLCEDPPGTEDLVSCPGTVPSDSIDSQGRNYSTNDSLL
Experimental: In this experiment, β2 adrenergic receptor agonist activities were functionally determined using a quantitative ex-vivo guinea pig trachea bioassay. […] Following extensive washings and recovery to the initial state, the tissues were exposed to a single or several cumulative concentrations of the test compounds or the same agonist. Each concentration was left in contact with the tissues until a stable response was obtained. […] Assay volume and format was 20 ml organ baths. […] Following washings, the tissues were contracted again with carbachol, and then exposed to increasing concentrations of the test compound or the same agonist. […] If it occurred, a recovery of contraction by the test compound indicated an antagonist activity at the β2 receptors. The parameter measured was the maximal change in tension induced by each compound concentration. […] The agonist efficacy and potency of the test compounds were evaluated respectively in terms of Emax values (maximum response) and EC50 values (concentration producing a half-maximum response). These were determined from the concentration-response curves.

[2] = Table 12, test concentration 1.0E−03 M
[3] = Table 12, test concentration 1.0E−04 M
[4] = Table 12, test concentration 1.0E−05 M
[5] = Table 12, test concentration 1.0E−06 M
[6] = Table 12, test concentration 3.0E−05 M
[7] = Table 12, test concentration 3.0E−06 M
[8] = Table 12, test concentration 3.0E−07 M
[9] = Table 12, test concentration 3.0E−08 M
[10] = calculated from the data in Table 12
[11] = first assay, test concentration 1.0E−05 M
[12] = repeat assay, test concentration 1.0E−03 M
[13] = Table 12, test concentration 3.0E−04 M

| SMILES | IC50 (human μ-opioid receptor) [µM] | Ki (human μ-opioid receptor) [µM] | binding to the μ-opioid receptor (human μ-opioid receptor) | % of Control Specific Binding, Mean (human μ-opioid receptor; [2]) [%] | % of Control Specific Binding, Run 1 (human μ-opioid receptor; [2]) [%] | % of Control Specific Binding, Run 2 (human μ-opioid receptor; [2]) [%] | % of Control Specific Binding, Mean (human μ-opioid receptor; [3]) [%] | % of Control Specific Binding, Run 1 (human μ-opioid receptor; [3]) [%] | % of Control Specific Binding, Run 2 (human μ-opioid receptor; [3]) [%] | % of Control Specific Binding, Mean (human μ-opioid receptor; [4]) [%] | % of Control Specific Binding, Run 1 (human μ-opioid receptor; [4]) [%] | % of Control Specific Binding, Run 2 (human μ-opioid receptor; [4]) [%] | % of Control Specific Binding, Mean (human μ-opioid receptor; [5]) [%] | % of Control Specific Binding, Run 2 (human μ-opioid receptor; [5]) [%] | % of Control Specific Binding, Mean (human μ-opioid receptor; [6]) [%] | % of Control Specific Binding, Run 1 (human μ-opioid receptor; [6]) [%] | % of Control Specific Binding, Run 2 (human μ-opioid receptor; [6]) [%] | % of Control Specific Binding, Run 1 (human μ-opioid receptor; [7]) [%] | % of Control Specific Binding, Run 2 (human μ-opioid receptor; [7]) [%] | % of Control Specific Binding, Mean (human μ-opioid receptor; [8]) [%] | other results |
| --- | --- | --- | --- | --- | --- | --- | --- | --- | --- | --- | --- | --- | --- | --- | --- | --- | --- | --- | --- | --- | --- |
| CC(C)NC1CCn2c(=O)[nH]c3cccc(c32)C1O (racemic) [Racemic trans, 4,5,6,7-tetrahydro-7-hydroxy-6-(isopropylamino)imidazo[4,5,1-jk]-[1]benzazepin-2(1H)-one, reference compound] | 31 | 13 | greater binding | 2.9 | 2.4 | 3.3 | 23.7 | 24.5 | 22.9 | 73.7 | 76.7 | 70.8 | 90.0 | 95.1 | 47.5 | 49.3 | 45.6 | 76.2 | 87.4 | 91.2 | % of Control Specific Binding, Run 1 (human μ-opioid receptor; [5]): 84.9%; % of Control Specific Binding, Mean (human μ-opioid receptor; [7]): 81.8%; % of Control Specific Binding, Run 1 (human μ-opioid receptor; [8]): 92.1%; % of Control Specific Binding, Mean (human μ-opioid receptor; [9]): 98.3%; % of Control Specific Binding, Run 1 (human μ-opioid receptor; [9]): 105.8%; % of Control Specific Binding, Run 2 (human μ-opioid receptor; [9]): 90.9%; nH (Hill coefficient) (human μ-opioid receptor; [10]): 0.9; % Inhibition of Control Specific Binding (human μ-opioid receptor; [11]): 24%; % of Control Specific Binding, Mean (human μ-opioid receptor; [11]): 76.2%; % of Control Specific Binding, Run 1 (human μ-opioid receptor; [11]): 76.2%; % of Control Specific Binding, Run 2 (human μ-opioid receptor; [11]): 76.2%; % Inhibition of Control Specific Binding (human μ-opioid receptor; [12]): 98%; % of Control Specific Binding, Mean (human μ-opioid receptor; [12]): 2.2%; % of Control Specific Binding, Run 1 (human μ-opioid receptor; [12]): 1.6%; % of Control Specific Binding, Run 2 (human μ-opioid receptor; [12]): 2.9% |
| CC(C)N[C@@H]1CCn2c(=O)[nH]c3cccc(c32)[C@H]1O (single isomer, unassigned) [6R,7R enantiomer, 6R,7R zilpaterol enantiomer] | 320 | 130 | binds weakly | 24.1 | 23.0 | 25.2 | 71.1 | 71.3 | 70.8 | 81.3 | 80.4 | 82.1 | 89.3 | 87.5 | 80.7 | 73.9 | 87.5 | 92.1 | 88.7 | 93.6 | μ-opioid agonist response (μ-opioid receptor): greater μ-opioid agonist response than both the 6S,7S zilpaterol enantiomer and racemic trans zilpaterol; % of Control Specific Binding, Mean (human μ-opioid receptor; [13]): 43.5%; % of Control Specific Binding, Run 2 (human μ-opioid receptor; [13]): 40.4%; % of Control Specific Binding, Run 1 (human μ-opioid receptor; [8]): 94.8%; % of Control Specific Binding, Run 2 (human μ-opioid receptor; [8]): 92.4%; nH (Hill coefficient) (human μ-opioid receptor; [10]): 0.9; Ki (human μ-opioid receptor; calculated from the data in Table 12, Cheng Prusoff): 130 µM; % Inhibition of Control Specific Binding (human μ-opioid receptor; [11]): 7%; % of Control Specific Binding, Mean (human μ-opioid receptor; [11]): 92.9%; % of Control Specific Binding, Run 1 (human μ-opioid receptor; [11]): 90.8%; % of Control Specific Binding, Run 2 (human μ-opioid receptor; [11]): 95.0%; % Inhibition of Control Specific Binding (human μ-opioid receptor; [12]): 82%; % of Control Specific Binding, Mean (human μ-opioid receptor; [12]): 17.9%; % of Control Specific Binding, Run 1 (human μ-opioid receptor; [12]): 17.8%; % of Control Specific Binding, Run 2 (human μ-opioid receptor; [12]): 18.0% |
| CC(C)N[C@H]1CCn2c(=O)[nH]c3cccc(c32)[C@@H]1O [6S,7S enantiomer, 6S,7S zilpaterol enantiomer] | 17 | 7 | greater binding | 1.2 | 1.4 | 0.9 | 16.4 | 15.9 | 16.9 | 60.2 | 61.1 | 59.2 | 87.7 | 84.6 | 36.1 | 34.9 | 37.2 | 81.0 | 77.2 | 95.3 | % of Control Specific Binding, Run 1 (human μ-opioid receptor; [5]): 90.9%; % of Control Specific Binding, Mean (human μ-opioid receptor; [7]): 79.1%; % of Control Specific Binding, Run 1 (human μ-opioid receptor; [8]): 97.5%; % of Control Specific Binding, Run 2 (human μ-opioid receptor; [8]): 93.2%; % of Control Specific Binding, Mean (human μ-opioid receptor; [9]): 95.8%; % of Control Specific Binding, Run 1 (human μ-opioid receptor; [9]): 93.9%; % of Control Specific Binding, Run 2 (human μ-opioid receptor; [9]): 97.7%; nH (Hill coefficient) (human μ-opioid receptor; [10]): 0.9; % Inhibition of Control Specific Binding (human μ-opioid receptor; [11]): 34%; % of Control Specific Binding, Mean (human μ-opioid receptor; [11]): 66.3%; % of Control Specific Binding, Run 1 (human μ-opioid receptor; [11]): 67.2%; % of Control Specific Binding, Run 2 (human μ-opioid receptor; [11]): 65.4%; % Inhibition of Control Specific Binding (human μ-opioid receptor; [12]): 100%; % of Control Specific Binding, Mean (human μ-opioid receptor; [12]): 0.2%; % of Control Specific Binding, Run 1 (human μ-opioid receptor; [12]): 0.1%; % of Control Specific Binding, Run 2 (human μ-opioid receptor; [12]): 0.4% |
| C[C@@H](NC(=O)[C@@H](N)Cc1ccc(O)cc1)C(=O)NCC(=O)N(C)[C@@H](Cc1ccccc1)C(=O)NCCO [DAMGO, reference compound] | – | – | – | – | – | – | – | – | – | – | – | – | – | – | – | – | – | – | – | – | nH (Hill coefficient) (human μ-opioid receptor; reference compound, three independent experiments): 1.0 and 0.9 |
| CC(C)(C)NCC(O)c1ccc(O)c(CO)c1 (centres unmarked) [Salbutamol, salbutamol] | – | – | – | – | – | – | – | – | – | – | – | – | – | – | – | – | – | – | – | – | Percent of the Control Response to Salbutamol at 3.0E−07 M, Mean ([1]; Table 6, concentration 3.0E−08 M): 50%; Percent of the Control Response to Salbutamol at 3.0E−07 M, Mean ([1]; Table 6, concentration 3.0E−09 M): 8%; Percent of the Control Response to Salbutamol at 3.0E−07 M, Mean ([1]; Table 6, highest concentration 3.0E−07 M + ICI 118551 3.0E−07 M): 2%; Percent of the Control Response to Salbutamol at 3.0E−07 M, Mean ([1]; Table 7, concentration 3.0E−08 M): 53%; Percent of the Control Response to Salbutamol at 3.0E−07 M, Mean ([1]; Table 7, concentration 3.0E−09 M): 11%; Percent of the Control Response to Salbutamol at 3.0E−07 M, Mean ([1]; Table 7, highest concentration 3.0E−07 M + ICI 118551 3.0E−07 M): 5% |
